Numbers after ± are expanded uncertainties.
Test: molar enthalpy of vaporization or sublimation
Settings: 298.15 K, Static calorimetry

SMILES | molar enthalpy (Liquid) | molar enthalpy (Crystal)
COc1ccccc1C(C)=O [2'-methoxyacetophenone] | 15.9 ± 0.287 kcal/mol | 
COc1cccc(C(C)=O)c1 [3'-methoxyacetophenone] | 16.2 ± 0.287 kcal/mol | 
COc1ccc(C(C)=O)cc1 [4'-methoxyacetophenone] |  | 21 ± 0.335 kcal/mol
